In US10071974B2, “Morpholine and 1,4-oxazepane amides as somatostatin receptor subtype 4 (SSTR4) agonists” (Boehringer Ingelheim International GmbH, priority 2014, dated 2018):

Target: human Somatostatin 4 Receptor (SSTR4) (Homo sapiens (Human), UniProt P31391)
Assay: cAMP assay with human somatostatin 4 receptor (hSSTR4 expressing H4 cells)
Type: cell-based
Settings: read-out: SSTR4 agonism EC50

Chain of human Somatostatin 4 Receptor (SSTR4) (P31391 whole entry): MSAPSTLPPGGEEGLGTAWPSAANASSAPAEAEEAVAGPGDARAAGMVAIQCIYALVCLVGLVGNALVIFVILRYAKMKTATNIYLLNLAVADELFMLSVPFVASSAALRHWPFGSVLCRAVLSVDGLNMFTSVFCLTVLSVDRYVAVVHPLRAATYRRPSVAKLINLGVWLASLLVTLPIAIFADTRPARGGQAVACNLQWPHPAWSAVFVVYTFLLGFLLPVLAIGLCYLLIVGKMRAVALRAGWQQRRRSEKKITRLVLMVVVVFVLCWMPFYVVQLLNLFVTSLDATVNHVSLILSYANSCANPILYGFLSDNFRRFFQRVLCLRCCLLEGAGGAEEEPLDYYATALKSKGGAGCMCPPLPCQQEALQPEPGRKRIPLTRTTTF

| EC50 [nM] | Structure (SMILES) |
| --- | --- |
| 393 | CC(C)(COc1nccc2ccccc12)NC(=O)C1CNCCOC1 (racemic) [Example 16] |
| 7.7 | Cc1cccc2c(C(C)(C)NC(=O)C3CNCCOC3)cnn12 (racemic) [Example 33] |
| 0.8 | Cc1ncc(C(C)(C)NC(=O)C2CNCCOC2)c2ccccc12 (racemic) [Example 40] |
| 25.9 | Cc1cc2ccccc2c(C(C)(C)NC(=O)C2CNCCCO2)n1 (racemic) [Example 47] |
| 105 | Cc1cc2ccccc2c(C(C)(C)NC(=O)C2CCNCCO2)n1 (racemic) [Example 50] |
| 8.2 | Cc1cccc2c(C(C)(C)NC(=O)C3CNCCOC3)noc12 (racemic) [Example 54] |
| 4.1 | Cc1cccc2c(C(C)(C)NC(=O)C3CNCCOC3)n[nH]c12 (racemic) [Example 58] |
| 65.7 | CC(C)(NC(=O)C1CNCCOC1)c1noc2c(F)cccc12 (racemic) [Example 62] |
| 998 | CC(C)(NC(=O)C1CNCCCO1)c1noc2c(F)cccc12 (racemic) [Example 65] |
| 628 | CC(C)(NC(=O)C1CCNCCO1)c1noc2c(F)cccc12 (racemic) [Example 68] |
| 4.8 | Cn1nc(C(C)(C)NC(=O)C2CNCCOC2)c2cccc(Cl)c21 (racemic) [Example 80] |
| 4.5 | Cc1cccc2c(C(C)(C)NC(=O)C3CNCCOC3)nn(C)c12 (racemic) [Example 84] |
| 11.1 | CC(C)(NC(=O)C1CNCCOC1)c1n[nH]c2c(F)cccc12 (racemic) [Example 88] |
| 2.5 | CC(C)(NC(=O)C1CNCCOC1)c1n[nH]c2c(Cl)cccc12 (racemic) [Example 92] |
| 32.4 | COc1cccn2c(C(C)(C)NC(=O)C3CNCCOC3)ncc12 (racemic) [Example 123] |
| 55.3 | Cc1nc(C(C)(C)NC(=O)C2CNCCOC2)c2cccc(C)c2n1 (racemic) [Example 133] |
| 8.5 | Cc1cccn2c(C(C)(C)NC(=O)C3CNCCOC3)ccc12 (racemic) [Example 135] |
| 59.7 | Cc1cccn2c(C(C)(C)NC(=O)C3CNCCOC3)nc(C3CC3)c12 (racemic) [Example 138] |
| 90.2 | Cc1cccn2c(C(C)(C)NC(=O)C3CCNCCO3)ncc12 (racemic) [Example 141] |
| 71.8 | Cc1cccn2c(C(C)(C)NC(=O)C3CNCCCO3)ncc12 (racemic) [Example 144] |
| 185 | Cc1cccn2c(C(C)(C)NC(=O)C3CNCCCO3)nc(C)c12 (racemic) [Example 147] |
| 30000 | CC(C)(COc1nccc2ccccc12)NC(=O)C1CNCCOC1 (single isomer, unassigned) [Example 17] |
| 209 | CC(C)(COc1nccc2ccccc12)NC(=O)C1CNCCOC1 (single isomer, unassigned) [Example 18] |
| 192 | Cn1nc(C(C)(C)NC(=O)C2CNCCOC2)c2ccccc21 (single isomer, unassigned) [Example 22] |
| 1000 | Cn1nc(C(C)(C)NC(=O)C2CNCCCO2)c2ccccc21 (single isomer, unassigned) [Example 25] |

| EC50 [nM] | Structure (SMILES) |
| --- | --- |
| 48.4 | Cn1nc(C(C)(C)NC(=O)C2CCNCCO2)c2ccccc21 (single isomer, unassigned) [Example 28] |
| 2860 | Cc1cccc2c(C(C)(C)NC(=O)C3CNCCOC3)cnn12 (single isomer, unassigned) [Example 35] |
| 415 | Cc1ncc(C(C)(C)NC(=O)C2CNCCOC2)c2ccccc12 (single isomer, unassigned) [Example 42] |
| 795 | Cc1cc2ccccc2c(C(C)(C)NC(=O)C2CNCCOC2)n1 (single isomer, unassigned) [Example 45] |
| 988 | Cc1cc2ccccc2c(C(C)(C)NC(=O)C2CNCCCO2)n1 (single isomer, unassigned) [Example 49] |
| 42.9 | Cc1cc2ccccc2c(C(C)(C)NC(=O)C2CCNCCO2)n1 (single isomer, unassigned) [Example 51] |
| 48.9 | Cc1cc2ccccc2c(C(C)(C)NC(=O)C2CCNCCO2)n1 (single isomer, unassigned) [Example 52] |
| 737 | Cc1cccc2c(C(C)(C)NC(=O)C3CNCCOC3)noc12 (single isomer, unassigned) [Example 56] |
| 1070 | Cc1cccc2c(C(C)(C)NC(=O)C3CNCCOC3)n[nH]c12 (single isomer, unassigned) [Example 59] |
| 42 | CC(C)(NC(=O)C1CNCCOC1)c1noc2c(F)cccc12 (single isomer, unassigned) [Example 63] |
| 1860 | CC(C)(NC(=O)C1CNCCOC1)c1noc2c(F)cccc12 (single isomer, unassigned) [Example 64] |
| 625 | CC(C)(NC(=O)C1CNCCCO1)c1noc2c(F)cccc12 (single isomer, unassigned) [Example 66] |
| 23000 | CC(C)(NC(=O)C1CNCCCO1)c1noc2c(F)cccc12 (single isomer, unassigned) [Example 67] |
| 434 | CC(C)(NC(=O)C1CCNCCO1)c1noc2c(F)cccc12 (single isomer, unassigned) [Example 69] |
| 544 | CC(C)(NC(=O)C1CCNCCO1)c1noc2c(F)cccc12 (single isomer, unassigned) [Example 70] |
| 430 | Cn1nc(C(C)(C)NC(=O)C2CNCCOC2)c2cccc(F)c21 (single isomer, unassigned) [Example 78] |
| 152 | Cn1nc(C(C)(C)NC(=O)C2CNCCOC2)c2cccc(Cl)c21 (single isomer, unassigned) [Example 81] |
| 1000 | Cc1cccc2c(C(C)(C)NC(=O)C3CNCCOC3)nn(C)c12 (single isomer, unassigned) [Example 86] |
| 670 | CC(C)(NC(=O)C1CNCCOC1)c1n[nH]c2c(F)cccc12 (single isomer, unassigned) [Example 90] |
| 31 | CC(C)(NC(=O)C1CNCCOC1)c1n[nH]c2c(Cl)cccc12 (single isomer, unassigned) [Example 94] |
| 1000 | Cc1cccn2c(C(C)(NC(=O)[C@@H]3CNCCO3)C3CC3)ncc12 (single isomer, unassigned) [Example 110] |
| 290 | Cc1cccn2c(C(C)(NC(=O)[C@@H]3CNCCO3)C3CC3)ncc12 (single isomer, unassigned) [Example 111] |
| 5500 | Cc1cccn2c(C(C)(CC(C)C)NC(=O)[C@@H]3CNCCO3)ncc12 (single isomer, unassigned) [Example 112] |
| 380 | Cc1cccn2c(C(C)(CC(C)C)NC(=O)[C@@H]3CNCCO3)ncc12 (single isomer, unassigned) [Example 113] |
| 1000 | Cc1cccn2c(C3(NC(=O)[C@@H]4CNCCO4)CCOC3)ncc12 (single isomer, unassigned) [Example 114] |

| EC50 [nM] | Structure (SMILES) |
| --- | --- |
| 294 | Cc1cccn2c(C3(NC(=O)[C@@H]4CNCCO4)CCOC3)ncc12 (single isomer, unassigned) [Example 115] |
| 86.8 | Cc1cccn2c(C(C)(C)NC(=O)C3CNCCOC3)ncc12 (single isomer, unassigned) [Example 118] |
| 73.9 | CC(C)(NC(=O)C1CNCCOC1)c1ncc2c(Cl)cccn12 (single isomer, unassigned) [Example 119] |
| 11.1 | Cc1nc(C(C)(C)NC(=O)C2CNCCOC2)n2cccc(F)c12 (single isomer, unassigned) [Example 121] |
| 1000 | Cc1nc(C(C)(C)NC(=O)C2CNCCOC2)n2cccc(F)c12 (single isomer, unassigned) [Example 122] |
| 1000 | COc1cccn2c(C(C)(C)NC(=O)C3CNCCOC3)ncc12 (single isomer, unassigned) [Example 124] |
| 16.4 | COc1cccn2c(C(C)(C)NC(=O)C3CNCCOC3)ncc12 (single isomer, unassigned) [Example 125] |
| 5.3 | Cc1cccn2c(C(C)(C)NC(=O)C3CNCCOC3)nc(C)c12 (single isomer, unassigned) [Example 129] |
| 466 | Cc1cccn2c(C(C)(C)NC(=O)C3CNCCOC3)nc(C)c12 (single isomer, unassigned) [Example 130] |
| 19 | Cc1cccn2c(C3(NC(=O)C4CNCCOC4)CCC3)ncc12 (single isomer, unassigned) [Example 131] |
| 10000 | Cc1cccn2c(C3(NC(=O)C4CNCCOC4)CCC3)ncc12 (single isomer, unassigned) [Example 132] |
| 98.1 | Cc1nc(C(C)(C)NC(=O)C2CNCCOC2)c2cccc(C)c2n1 (single isomer, unassigned) [Example 134] |
| 1430 | Cc1cccn2c(C(C)(C)NC(=O)C3CNCCOC3)ccc12 (single isomer, unassigned) [Example 137] |
| 22.2 | Cc1cccn2c(C(C)(C)NC(=O)C3CNCCOC3)nc(C3CC3)c12 (single isomer, unassigned) [Example 139] |
| 1000 | Cc1cccn2c(C(C)(C)NC(=O)C3CNCCOC3)nc(C3CC3)c12 (single isomer, unassigned) [Example 140] |
| 90.5 | Cc1cccn2c(C(C)(C)NC(=O)C3CCNCCO3)ncc12 (single isomer, unassigned) [Example 142] |
| 77.6 | Cc1cccn2c(C(C)(C)NC(=O)C3CCNCCO3)ncc12 (single isomer, unassigned) [Example 143] |
| 1000 | Cc1cccn2c(C(C)(C)NC(=O)C3CNCCCO3)ncc12 (single isomer, unassigned) [Example 146] |
| 93 | Cc1cccn2c(C(C)(C)NC(=O)C3CNCCCO3)nc(C)c12 (single isomer, unassigned) [Example 148] |
| 1000 | Cc1cccn2c(C(C)(C)NC(=O)C3CNCCCO3)nc(C)c12 (single isomer, unassigned) [Example 149] |
| 4.7 | CC(C)(NC(=O)C1CNCCOC1)c1cccc2ccccc12 (stereo not drawn) [Example 1] |
| 90.1 | Cc1cc2cccnc2c(C(C)(C)NC(=O)C2CNCCOC2)n1 (stereo not drawn) [Example 2] |
| 18 | C[C@H](NC(=O)C1CNCCOC1)c1cccc2ccccc12 (stereo partly drawn) [Example 3] |
| 272 | CC(C)(COc1cnccc1C(F)(F)F)NC(=O)C1CNCCOC1 (stereo not drawn) [Example 4] |
| 2420 | CC(C)(NC(=O)[C@@H]1CNCCO1)C1CCCCC1 [Example 7] |
